Assay results: publication PMC12406685, “Thiazole substitution of a labile amide bond—a new option toward antiplasmodial pantothenamide-mimics” (Antimicrobial Agents and Chemotherapy, 2025)
Where two headings read alike, the source gives them in different places.

What was measured:
[1] = test system: intraerythrocytic P. falciparum; assay: In vitro parasite proliferation assay (SYBR Safe-based fluorescence); assay type: cell-based, Plasmodium falciparum (3D7 strain); conditions: Plasmodium falciparum; intraerythrocytic stage, RPMI-1640 containing 1 µM pantothenate, 96 h; mean ± SEM of three experiments; read-out: IC50 (µM) against Pf at 1 µM Pan
Procedure: Culturing of intraerythrocytic stage P. falciparum parasites (3D7 strain) was carried out using a method adapted from Trager and Jensen ([97]) and Allen and Kirk ([98]). Parasites were maintained within human, male or female, erythrocytes (typically Group O+, Rh+, 4% hematocrit) in RPMI-1640 medium (Thermo Fisher Scientific, catalogue number 72400120) supplemented with 25 mM HEPES, 11 mM glucose, 200 μM hypoxanthine, 24 μg/mL gentamicin and 6 g/L Albumax II on a horizontally rotating shaking incubator (New Brunswick Innova 42/[…]) at 37°C under an atmosphere of 96% nitrogen, 3% carbon dioxide, and 1% oxygen. To evaluate the effect of each compound on the in vitro proliferation of P. falciparum parasites, a SYBR Safe-based fluorescence assay was used as previously described ([32]). All pantothenamide-mimics tested were initially dissolved to a concentration of 200 mM in DMSO. The final DMSO concentration in the assay never exceeded 0.1% (vol/vol). Assays were performed using the same medium used to culture the parasites. […] Assays were set up with synchronous ring-stage P. falciparum-infected erythrocytes in 96-well microtiter plates. Parasites were synchronized using 5% (wt/vol) sorbitol ([100]). […] P. falciparum-infected erythrocytes incubated in the presence of 0.5 μM chloroquine were used as a non-proliferation control, and those incubated in the absence of compounds and chloroquine served as a 100% parasite proliferation control. To minimize “edge effects” ([101], [102]), the outermost rows and columns of the microtiter plates were not used in the proliferation assays and were filled with 200 μL of medium. The plates were then incubated at 37°C for 96 h under a low-oxygen atmosphere. At the end of the incubation, plates were frozen at -80°C to lyse the cells. […] The fluorescence in the non-proliferation control wells was subtracted from the fluorescence readings in the other wells prior to further analysis. Parasite proliferation, calculated as a percentage of the fluorescence measured in the test wells relative to the fluorescence measured in the 100% parasite proliferation control wells, was then plotted against the logarithm of the compound concentration. […] IC50 values (determined from the sigmoidal curves) were averaged from three independent experiments.

[2] = test system: intraerythrocytic P. falciparum; conditions: cited from earlier work
[3] = test system: human foreskin fibroblasts (HFF); assay: In vitro HFF proliferation assay (Incucyte confluency); assay type: cell-based; conditions: 10 µM
Procedure: (§1) HFF cells were maintained in vitro in DMEM supplemented with 10% (vol/vol) newborn calf serum, 50 units/mL penicillin, 50 µg/mL streptomycin, 10 µg/mL gentamicin, 0.2 mM L-glutamine, and 0.25 µg/mL amphotericin B, as previously described ([99]). HepG2 cells were maintained in RPMI-1640 medium (Thermo Fisher Scientific, catalogue number 72400120) supplemented with 10% (vol/vol) fetal bovine serum, 50 units/mL penicillin, and 50 µg/mL streptomycin.
In vitro HFF proliferation assays were performed as previously described by Howieson et al. ([32]), with modifications. Confluent HFF cells (in a 75 cm^2 flask) were harvested by treatment with 1 × trypsin–EDTA (0.25% [wt/vol] trypsin +0.2 g/L EDTA) and diluted in 21 mL of DMEM supplemented with 10% [vol/vol] newborn calf serum ([32]). Assays were set up in 96-well microtiter plates in a similar way to that described for the antiplasmodial activity assay. Cycloheximide (10 µM) was used as a non-proliferation control, and 0.1% (vol/vol) DMSO served as a 100% proliferation control. The plates were incubated at 37°C in a CO2 incubator for 96 h, and the Incucyte Live-Cell Analysis System (Essen BioScience) was used to capture cellular changes and assess cell growth in each well over time. Each well was scanned to capture bright field images, and confluency was assessed at the end of the 96 h incubation, which was then used to evaluate the effect of each compound on the proliferation of HFF cells by comparing it to the 100% proliferation control. The bottom of the curve was constrained to 0 when fitting for HFF proliferation assays using GraphPad Prism.

PfPanK = test system: PfPanK; design: method as in PMID 29614109, PMID 11278793, PMID 24333332; conditions: mean ± SEM; read-out: Km for pantothenate of PfPanK in parasite lysates; cited from earlier work
HsPanK3 = target: T1, HsPanK3 (Homo sapiens, UniProt Q9H999); conditions: read-out: Km for pantothenate of HsPanK3, previous reports; cited from earlier work
T1 sequence (Q9H999 12-368): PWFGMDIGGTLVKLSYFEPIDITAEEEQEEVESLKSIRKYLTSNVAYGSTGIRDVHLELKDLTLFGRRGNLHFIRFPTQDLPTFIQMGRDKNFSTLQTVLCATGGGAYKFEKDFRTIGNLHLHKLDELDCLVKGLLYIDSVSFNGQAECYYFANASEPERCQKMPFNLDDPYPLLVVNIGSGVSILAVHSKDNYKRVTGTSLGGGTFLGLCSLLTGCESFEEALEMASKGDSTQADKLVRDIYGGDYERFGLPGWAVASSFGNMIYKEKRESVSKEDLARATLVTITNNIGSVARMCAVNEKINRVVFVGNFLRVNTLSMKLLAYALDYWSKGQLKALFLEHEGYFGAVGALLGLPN

[4] = test system: human hepatoblastoma cells (HepG2); assay: In vitro HepG2 proliferation assay (Incucyte confluency); assay type: cell-based; conditions: 10 µM
Procedure: as §1
In vitro HepG2 proliferation assays were performed similarly to the HFF proliferation assays with modifications. Confluent HepG2 cells were harvested by treatment with 1 × trypsin–EDTA and diluted in RPMI-1640 supplemented with 10% (vol/vol) fetal bovine serum. Assays were set up in 96-well microtiter plates with 20,000 cells per well. Puromycin (10 µM) was used as a non-proliferation control, and 0.1% (vol/vol) DMSO served as a 100% proliferation control. The plates were incubated at 37°C in a CO2 incubator for 72 h, and the Incucyte Live-Cell Analysis System (Essen BioScience) was used to capture cellular changes and assess cell growth in each well over time as described above for the HFF proliferation assays. The bottom of the curve was constrained to 0 when fitting for HepG2 proliferation assays using GraphPad Prism.

[5] = in the presence of pantetheinases, read-out: IC50 against intraerythrocytic P. falciparum

Which IC50 [1] does the source give for `CC(C)CCc1csc(CNC(=O)[C@H](O)C(C)(C)CO)n1` [Compound 1b] here?
Its IC50 is 2.9 ± 0.2 µM.

With `CCCCCCc1csc(CNC(=O)[C@H](O)C(C)(C)CO)n1` [Compound 1d] as the compound, how does the IC50 [1] read?
The IC50 was 4.3 ± 0.4 µM.

For `CCCCCc1nc(CNC(=O)[C@H](O)C(C)(C)CO)cs1` [Compound 2a], which IC50 [1] is on record?
Its IC50 is 5.6 ± 0.2 µM.

With `CCCCCCc1nc(CNC(=O)[C@H](O)C(C)(C)CO)cs1` [Compound 2b] as the compound, how does the IC50 [1] read?
Its IC50 is 5.2 ± 0.6 µM.

Which IC50 [1] does the source give for `CC(C)(CO)[C@@H](O)C(=O)NCc1csc(Cc2ccc3ccccc3c2)n1` [Compound 2d] here?
Its IC50 is 6.5 ± 0.1 µM.

For `CC(C)(CO)[C@@H](O)C(=O)NCc1csc(-c2ccc(Cl)cc2)n1` [Compound 2f], which IC50 [1] is on record?
The IC50 was 3.1 ± 0.3 µM.

For `CC(C)(CO)[C@@H](O)C(=O)NCc1csc(-c2ccc(C(F)(F)F)cc2)n1` [Compound 2g], which IC50 [1] is on record?
Its IC50 is 57 ± 2 µM.

Which IC50 [1] does the source give for `CC(C)(CO)[C@@H](O)C(=O)NCc1csc(-c2cccc(C(F)(F)F)c2)n1` [Compound 2h] here?
The IC50 was 21 ± 1 µM.

Which IC50 [1] does the source give for `CCCCc1ncc(CNC(=O)[C@H](O)C(C)(C)CO)s1` [Compound 3a] here?
Its IC50 is 11 ± 1 µM.

With `CCCCCc1ncc(CNC(=O)[C@H](O)C(C)(C)CO)s1` [Compound 3b] as the compound, how does the IC50 [1] read?
The IC50 was 12 ± 1 µM.

Which IC50 [1] does the source give for `CCCCCCc1ncc(CNC(=O)[C@H](O)C(C)(C)CO)s1` [Compound 3c] here?
Its IC50 is 35 ± 2 µM.

Which IC50 [1] does the source give for `CC(C)(CO)[C@@H](O)C(=O)NCc1cnc(Cc2ccccc2)s1` [Compound 3d] here?
Its IC50 is 16 ± 1 µM.

For `CC(C)(CO)[C@@H](O)C(=O)NCc1cnc(CCc2ccccc2)s1` [Compound 3e], which IC50 [1] is on record?
The IC50 was 44 ± 1 µM.

With `CC(C)(CO)[C@@H](O)C(=O)NCc1cnc(-c2ccc(F)cc2)s1` [Compound 3g] as the compound, how does the IC50 [1] read?
The IC50 was 14 ± 2 µM.

With `CC(C)(CO)[C@@H](O)C(=O)NCc1cnc(-c2ccc(Cl)cc2)s1` [Compound 3h] as the compound, how does the IC50 [1] read?
Its IC50 is 44 ± 4 µM.

For `CC(C)(CO)[C@@H](O)C(=O)NCc1cnc(-c2ccc(C(F)(F)F)cc2)s1` [Compound 3i], which IC50 [1] is on record?
Its IC50 is 46 ± 6 µM.

For `CC(C)(CO)[C@@H](O)C(=O)NCc1cnc(-c2cccc(C(F)(F)F)c2)s1` [Compound 3j], which IC50 [1] is on record?
The IC50 was 11 ± 1 µM.

Which IC50 ([2]; absence of pantetheinases, read-out: IC50 in the absence of pantetheinases) does the source give for `CCCCCNC(=O)CCNC(=O)[C@H](O)C(C)(C)CO` [Compound N5-Pan] here?
The IC50 was 2 ± 0.5 µM.

And the IC50 ([2]; presence of pantetheinases, read-out: IC50 in the presence of pantetheinases)?
The IC50 was 124 ± 15 µM.

For `C[C@@H]1C[C@@H]([C@H](O)CC2CC(=O)NC(=O)C2)C(=O)[C@@H](C)C1` [Cycloheximide, reference compound], which “Effect on proliferation of HFF cells (positive control)” value [3] is on record?
Its value is “completely inhibited the proliferation”.

Which Km (PfPanK) does the source give for `CC(C)(CO)[C@@H](O)C(=O)NCCC(=O)O` [D-Pantothenate] here?
The Km was 0.27 ± 0.095 µM.

And the Km (HsPanK3)?
Its Km is 17 ± 1 µM.

With `CCCCCn1cc(CNC(=O)[C@H](O)C(C)(C)CO)nn1` [compound i] as the compound, how does the IC50 [2, 5] read?
Its IC50 is 0.056 ± 0.005 µM.

Which IC50 [2, 5] does the source give for `CCCCCc1nnc(CNC(=O)[C@H](O)C(C)(C)CO)s1` [compound v] here?
Its IC50 is 0.96 ± 0.05 µM.

Which IC50 [2, 5] does the source give for `CCCCCCn1cc(CNC(=O)[C@H](O)C(C)(C)CO)nn1` [ii] here?
Its IC50 is 0.055 ± 0.005 µM.

With `CCCCCc1cc(CNC(=O)[C@H](O)C(C)(C)CO)no1` [iii] as the compound, how does the IC50 [2, 5] read?
Its IC50 is 0.072 ± 0.003 µM.

With `CCCCCCc1cc(CNC(=O)[C@H](O)C(C)(C)CO)no1` [iv] as the compound, how does the IC50 [2, 5] read?
The IC50 was 0.16 ± 0.01 µM.

For `COc1ccc(C[C@H](N)C(=O)N[C@H]2[C@@H](O)[C@H](n3cnc4c(N(C)C)ncnc43)O[C@@H]2CO)cc1` [puromycin, reference compound], which “Effect on proliferation of HepG2 cells (positive control)” value [4] is on record?
Its value is “completely inhibited”.
